From EPA's CvTdb concentration-time database

Legend:
[1] = system: Rat; assay: concentration in liver after dosing; conditions: 1 h; dosed: Potassium Perfluorobutane Sulfonate; 20 mg/kg; oral; Male; Harlan Sprague Dawley
[2] = system: Rat; assay: concentration in liver after dosing; conditions: 3 h; dosed: Potassium Perfluorobutane Sulfonate; 20 mg/kg; oral; Male; Harlan Sprague Dawley
[3] = system: Rat; assay: concentration in liver after dosing; conditions: 0.5 h; dosed: Potassium Perfluorobutane Sulfonate; 20 mg/kg; oral; Female; Harlan Sprague Dawley
[4] = system: Rat; assay: concentration in liver after dosing; conditions: 1 h; dosed: Potassium Perfluorobutane Sulfonate; 20 mg/kg; oral; Male; Harlan Sprague Dawley; remark: listed apart in the source
[5] = system: Rat; assay: concentration in liver after dosing; conditions: 6 h; dosed: Potassium Perfluorobutane Sulfonate; 20 mg/kg; oral; Male; Harlan Sprague Dawley
[6] = system: Rat; assay: concentration in liver after dosing; conditions: 6 h; dosed: Potassium Perfluorobutane Sulfonate; 20 mg/kg; oral; Female; Harlan Sprague Dawley
[7] = system: Rat; assay: concentration in plasma after dosing; conditions: 1 h; dosed: Potassium Perfluorobutane Sulfonate; 4 mg/kg; iv; Male; F344
[8] = system: Rat; assay: concentration in kidney after dosing; conditions: 1 h; dosed: Potassium Perfluorobutane Sulfonate; 20 mg/kg; oral; Female; Harlan Sprague Dawley
[9] = system: Rat; assay: concentration in plasma after dosing; conditions: 1.5 h; dosed: Potassium Perfluorobutane Sulfonate; 4 mg/kg; iv; Male; F344
[10] = system: Rat; assay: concentration in plasma after dosing; conditions: 1.5 h; dosed: Potassium Perfluorobutane Sulfonate; 4 mg/kg; oral; Male; Harlan Sprague Dawley
[11] = system: Rat; assay: concentration in plasma after dosing; conditions: 10 min; dosed: Nitrite; 40 mg/kg; oral; Male; F344
[12] = system: Rat; assay: concentration in plasma after dosing; conditions: 10 min; dosed: Nitrite; 40 mg/kg; oral; Female; F344
[13] = system: Rat; assay: concentration in plasma after dosing; conditions: dosed: Nitrite, 80 mg/kg, oral, Female, F344
[14] = system: Rat; assay: concentration in plasma after dosing; conditions: dosed: Nitrite, 20 mg/kg, iv, Male, F344
[15] = system: Mouse; assay: concentration in plasma after dosing; conditions: 0.25 h; dosed: 2-Hydroxy-4-methoxybenzophenone; 500 mg/kg; oral; Female; B6C3F1
[16] = system: Rat; assay: concentration in plasma after dosing; conditions: dosed: 2-Hydroxy-4-methoxybenzophenone, 250 mg/kg, oral, Male, F344
[17] = system: Mouse; assay: concentration in plasma after dosing; conditions: 2.5 min; dosed: 2-Hydroxy-4-methoxybenzophenone; 250 mg/kg; oral; Male; B6C3F1
[18] = system: Mouse; assay: concentration in plasma after dosing; conditions: 2 h; dosed: 2-Hydroxy-4-methoxybenzophenone; 250 mg/kg; oral; Male; B6C3F1
[19] = system: Mouse; assay: concentration in plasma after dosing; conditions: 2 h; dosed: 2-Hydroxy-4-methoxybenzophenone; 250 mg/kg; oral; Female; B6C3F1
[20] = system: Mouse; assay: concentration in plasma after dosing; conditions: 10 min; dosed: 2-Hydroxy-4-methoxybenzophenone; 50 mg/kg; iv; Female; B6C3F1
[21] = system: Mouse; assay: concentration in plasma after dosing; conditions: 0.25 h; dosed: 2-Hydroxy-4-methoxybenzophenone; 250 mg/kg; oral; Male; B6C3F1
[22] = system: Mouse; assay: concentration in plasma after dosing; conditions: 2 h; dosed: 2-Hydroxy-4-methoxybenzophenone; 250 mg/kg; oral; Male; B6C3F1; remark: listed apart in the source
[23] = system: Mouse; assay: concentration in plasma after dosing; conditions: 3 h; dosed: 2-Hydroxy-4-methoxybenzophenone; 250 mg/kg; oral; Female; B6C3F1
[24] = system: Rat; assay: concentration in plasma after dosing; conditions: dosed: 2-Hydroxy-4-methoxybenzophenone, 500 mg/kg, oral, Female, F344
[25] = system: Rat; assay: concentration in brain after dosing; conditions: 12 h; dosed: Perfluorooctanoic acid; 12 mg/kg; oral; Male; Harlan Sprague Dawley
[26] = system: Rat; assay: concentration in liver after dosing; conditions: 1 h; dosed: Fluorotelomer alcohol 8+2; 24 mg/kg; oral; Male; Harlan Sprague Dawley
[27] = system: Rat; assay: concentration in liver after dosing; conditions: 24 h; dosed: Perfluorooctanoic acid; 80 mg/kg; oral; Female; Harlan Sprague Dawley
[28] = system: Rat; assay: concentration in brain after dosing; conditions: 6 h; dosed: Perfluorooctanoic acid; 80 mg/kg; oral; Female; Harlan Sprague Dawley
[29] = system: Rat; assay: concentration in liver after dosing; conditions: 6 h; dosed: Perfluorooctanoic acid; 80 mg/kg; oral; Female; Harlan Sprague Dawley
[30] = system: Rat; assay: concentration in liver after dosing; conditions: 48 h; dosed: Perfluorooctanoic acid; 80 mg/kg; oral; Female; Harlan Sprague Dawley
[31] = system: Rat; assay: concentration in liver after dosing; conditions: 1 h; dosed: Fluorotelomer alcohol 8+2; 24 mg/kg; oral; Male; Harlan Sprague Dawley; remark: listed apart in the source
[32] = system: Rat; assay: concentration in liver after dosing; conditions: 12 h; dosed: Perfluorooctanoic acid; 12 mg/kg; oral; Male; Harlan Sprague Dawley
[33] = system: Rat; assay: concentration in brain after dosing; conditions: 192 h; dosed: Perfluorooctanoic acid; 12 mg/kg; oral; Male; Harlan Sprague Dawley
[34] = system: Rat; assay: concentration in brain after dosing; conditions: 3 h; dosed: Perfluorooctanoic acid; 12 mg/kg; oral; Male; Harlan Sprague Dawley
[35] = system: Rat; assay: concentration in liver after dosing; conditions: 6 h; dosed: Perfluorooctanoic acid; 12 mg/kg; oral; Male; Harlan Sprague Dawley
[36] = system: Rat; assay: concentration in brain after dosing; conditions: 6 h; dosed: Perfluorooctanoic acid; 80 mg/kg; oral; Female; Harlan Sprague Dawley; remark: listed apart in the source
[37] = system: Rat; assay: concentration in plasma after dosing; conditions: 192 h; dosed: 678-39-7; 12 mg/kg; iv; Male; F344
[38] = system: Rat; assay: concentration in plasma after dosing; conditions: dosed: 678-39-7, 40 mg/kg, iv, Male, F344
[39] = system: Rat; assay: concentration in plasma after dosing; conditions: dosed: 678-39-7, 12 mg/kg, iv, Male, F344
[40] = system: Rat; assay: concentration in plasma after dosing; conditions: dosed: 678-39-7, 40 mg/kg, iv, Male, F344; remark: listed apart in the source

O=S(=O)([O-])C(F)(F)C(F)(F)C(F)(F)C(F)(F)F.[K+] [Potassium Perfluorobutane Sulfonate]
Conditions | concentration in kidney [ng/g] | concentration in liver [ng/g] | concentration in plasma [ng/mL]
[1] | – | 110000 | –
[2] | – | 64100 | –
[3] | – | 51300 | –
[4] | – | 100000 | –
[5] | – | 43800 | –
[6] | – | 2620 | –
[7] | – | – | 17700
[8] | 21100 | – | –
[9] | – | – | 1850
[10] | – | – | 12600

O=N[O-] [Nitrite]
Conditions | concentration in plasma [ng/mL]
[11] | 2600
[12] | 8500

concentration in plasma [ng/mL]
Conditions | 0.5 h | 0.75 h | 2 min | 4 h
[13] | 11900 | – | – | 2400
[14] | – | 4000 | 2000 | –

COc1ccc(C(=O)c2ccccc2)c(O)c1 [2-Hydroxy-4-methoxybenzophenone]
Conditions | concentration in plasma [ng/mL]
[15] | 1230
[17] | 18.2
[18] | 55.1
[19] | 832
[20] | 11500
[21] | 231
[22] | 34
[23] | 35.5

concentration in plasma [ng/mL]
Conditions | 0.25 h | 2.5 min | 4 h
[16] | 55.5 | – | 84
[24] | – | 47.3 | 240

O=C(O)C(F)(F)C(F)(F)C(F)(F)C(F)(F)C(F)(F)C(F)(F)C(F)(F)F [Perfluorooctanoic acid]
Conditions | concentration in brain [ng/g] | concentration in liver [ng/g] | concentration in plasma [ng/mL]
[25] | 1230 | – | –
[26] | – | 676 | –
[27] | – | 10000 | –
[28] | 3290 | – | –
[29] | – | 160000 | –
[30] | – | 616 | –
[31] | – | 535 | –
[32] | – | 56700 | –
[33] | 543 | – | –
[34] | 913 | – | –
[35] | – | 57200 | –
[36] | 3230 | – | –
[37] | – | – | 310

Conditions | concentration in plasma [ng/mL]
[38], 0.5 h | 219000
[38], 3 h | 1660
[38], 12 h | 28000
[39], 3 h | 485
[39], 5 min | 58.3
[40], 0.5 h | 1400
[40], 9 h | 716
